# Legend:
# blackgrass = experiment: Test B pre/postemergence blackgrass; format: in vivo, Alopecurus myosuroides
# How it was run: (§1)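 Response is a visual 0-to-10 score relative to untreated plants, where 0 means no effect and 10 means complete control, taken twelve to sixteen days after application. Treatments went onto soil at planting and onto foliage of 1- to 4-leaf plants, using a surfactant-containing non-phytotoxic solvent.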
# surinam grass = experiment: Test B pre/postemergence surinam grass; format: in vivo, Brachiaria decumbens
# How it was run: as §1
# cocklebur = experiment: Test B pre/postemergence cocklebur; format: in vivo, Xanthium strumarium
# How it was run: as §1
# corn = experiment: Test B pre/postemergence corn; format: in vivo, Zea mays
# How it was run: as §1
# crabgrass = experiment: Test B pre/postemergence crabgrass; format: in vivo, Digitaria sanguinalis
# How it was run: as §1
# giant foxtail = experiment: Test B pre/postemergence giant foxtail; format: in vivo, Setaria faberii
# How it was run: as §1
# morningglory = experiment: Test B pre/postemergence morningglory; format: in vivo, Ipomoea hederacea
# How it was run: as §1
# rape = experiment: Test B pre/postemergence rape; format: in vivo, Brassica napus
# How it was run: as §1
# soybean = experiment: Test B pre/postemergence soybean; format: in vivo, Glycine max
# How it was run: as §1
# sugar beet = experiment: Test B pre/postemergence sugar beet; format: in vivo, Beta vulgaris
# How it was run: as §1
# velvetleaf = experiment: Test B pre/postemergence velvetleaf; format: in vivo, Abutilon theophrasti
# How it was run: as §1
# wheat = experiment: Test B pre/postemergence wheat; format: in vivo, Triticum aestivum
# How it was run: as §1
# wild oat = experiment: Test B pre/postemergence wild oat; format: in vivo, Avena fatua
# How it was run: as §1
# purple nutsedge = experiment: Test B pre/postemergence purple nutsedge; format: in vivo, Cyperus rotundus
# How it was run: as §1
# smallflower flatsedge = experiment: Test B flood test smallflower flatsedge; format: in vivo, Cyperus difformis
# How it was run: (§2)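 Flood test on plants grown to the 2-leaf stage; treated plants kept in greenhouse twelve to sixteen days, then visually rated against controls on a 0 (no effect) to 10 (complete control) scale.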
# duck salad = experiment: Test B flood test duck salad; format: in vivo, Heteranthera limosa
# How it was run: as §2
# [1] = Postemergence, Rate 125 g/ha, scale of 0 to 10 where 0 is no effect and 10 is complete control
# [2] = Preemergence, Rate 62 g/ha, scale 0 to 10 (0 no effect, 10 complete control)
# [3] = Preemergence, Rate 125 g/ha, 0 is no effect, 10 is complete control
# [4] = Preemergence, Rate 250 g/ha, scale 0 to 10, 0 is no effect, 10 is complete control
# [5] = Preemergence, Rate 500 g/ha, scale 0 to 10 (0 no effect, 10 complete control)
# [6] = Rate 62 g/ha, Postemergence, scale of 0 to 10 where 0 is no effect and 10 is complete control
# [7] = Rate 250 g/ha, Postemergence, scale 0 to 10, 0 is no effect, 10 is complete control
# [8] = Rate 500 g/ha, Postemergence, scale 0 to 10
# [9] = Rate 62 g/ha, headed Pre-emergence (flood test species), scale 0 to 10 (0 no effect, 10 complete control)
# [10] = Rate 125 g/ha, Pre-emergence, flood test species, scale 0 to 10 where 0 is no effect and 10 is complete control
# [11] = Rate 250 g/ha, headed Pre-emergence (flood test species), scale 0 to 10 (0 no effect, 10 complete control)
# [12] = Rate 500 g/ha, headed Pre-emergence (flood test species), scale 0 to 10 (0 no effect, 10 complete control)
structure (smiles),measurement,setting,value
CC(C)N(C(=O)n1oc(=O)n(C(C)(C)C)c1=O)c1ccccc1 [Compound 129],Blackgrass plant response rating,blackgrass; [1],0
same,Blackgrass plant response rating,blackgrass; [2],0
same,Blackgrass plant response rating (0 to 10 scale),blackgrass; [3],0
same,Blackgrass plant response rating,blackgrass; [4],2
same,Blackgrass plant response rating,blackgrass; [5],4
same,Blackgrass plant response rating,blackgrass; [6],0
same,"Plant response rating, Blackgrass",blackgrass; [7],3
same,Blackgrass plant response rating,blackgrass; [8],3
same,B. signalgrass plant response rating,surinam grass; [1],0
same,B. signalgrass plant response rating,surinam grass; [2],0
same,B. signalgrass plant response rating (0 to 10 scale),surinam grass; [3],2
same,B. signalgrass plant response rating,surinam grass; [5],7
same,B. signalgrass plant response rating,surinam grass; [6],0
same,"Plant response rating, B. signalgrass",surinam grass; [7],4
same,B. signalgrass plant response rating,"surinam grass; Rate 500 g/ha, Postemergence, scale of 0 to 10 where 0 is no effect and 10 is complete control",6
same,Cocklebur plant response rating,cocklebur; [1],0
same,Cocklebur plant response rating,cocklebur; [2],0
same,Cocklebur plant response rating (0 to 10 scale),cocklebur; [3],0
same,Cocklebur plant response rating,cocklebur; [4],0
same,Cocklebur plant response rating,cocklebur; [6],0
same,"Plant response rating, Cocklebur",cocklebur; [7],0
same,Cocklebur plant response rating,cocklebur; [8],0
same,Corn plant response rating,corn; [1],0
same,Corn plant response rating,corn; [2],0
same,Corn plant response rating (0 to 10 scale),corn; [3],0
same,Corn plant response rating,corn; [4],2
same,Corn plant response rating,corn; [5],4
same,Corn plant response rating,corn; [6],0
same,"Plant response rating, Corn",corn; [7],2
same,Corn plant response rating,corn; [8],4
same,Crabgrass plant response rating,crabgrass; [1],4
same,Crabgrass plant response rating,crabgrass; [2],6
same,Crabgrass plant response rating (0 to 10 scale),crabgrass; [3],7
same,Crabgrass plant response rating,crabgrass; [4],7
same,Crabgrass plant response rating,crabgrass; [5],9
same,Crabgrass plant response rating,crabgrass; [6],2
same,"Plant response rating, Crabgrass",crabgrass; [7],8
same,Crabgrass plant response rating,crabgrass; [8],9
same,Giant foxtail plant response rating,giant foxtail; [1],6
same,Giant foxtail plant response rating,giant foxtail; [2],7
same,Giant foxtail plant response rating (0 to 10 scale),giant foxtail; [3],7
same,Giant foxtail plant response rating,giant foxtail; [4],8
same,Giant foxtail plant response rating,giant foxtail; [5],9
same,Giant foxtail plant response rating,giant foxtail; [6],4
same,"Plant response rating, Giant foxtail",giant foxtail; [7],9
same,Giant foxtail plant response rating,giant foxtail; [8],9
same,Morningglory plant response rating,morningglory; [1],4
same,Morningglory plant response rating,morningglory; [2],0
same,Morningglory plant response rating (0 to 10 scale),morningglory; [3],0
same,Morningglory plant response rating,morningglory; [4],0
same,Morningglory plant response rating,morningglory; [5],0
same,Morningglory plant response rating,morningglory; [6],4
same,"Plant response rating, Morningglory",morningglory; [7],8
same,Morningglory plant response rating,morningglory; [8],8
same,Rape plant response rating,rape; [1],0
same,Rape plant response rating,rape; [2],0
same,Rape plant response rating (0 to 10 scale),rape; [3],0
same,Rape plant response rating,rape; [4],0
same,Rape plant response rating,rape; [5],0
same,Rape plant response rating,rape; [6],0
same,"Plant response rating, Rape",rape; [7],0
same,Rape plant response rating,rape; [8],0
same,Soybean plant response rating,soybean; [1],2
same,Soybean plant response rating,soybean; [2],0
same,Soybean plant response rating (0 to 10 scale),soybean; [3],0
same,Soybean plant response rating,soybean; [4],0
same,Soybean plant response rating,soybean; [5],2
same,Soybean plant response rating,soybean; [6],1
same,"Plant response rating, Soybean",soybean; [7],4
same,Soybean plant response rating,soybean; [8],4
same,Sugarbeets plant response rating,sugar beet; [1],0
same,Sugarbeets plant response rating,sugar beet; [2],2
same,Sugarbeets plant response rating (0 to 10 scale),sugar beet; [3],3
same,Sugarbeets plant response rating,sugar beet; [4],3
same,Sugarbeets plant response rating,sugar beet; [5],5
same,Sugarbeets plant response rating,sugar beet; [6],0
same,"Plant response rating, Sugarbeets",sugar beet; [7],0
same,Sugarbeets plant response rating,sugar beet; [8],0
same,Velvetleaf plant response rating,velvetleaf; [1],0
same,Velvetleaf plant response rating,velvetleaf; [2],0
same,Velvetleaf plant response rating (0 to 10 scale),velvetleaf; [3],0
same,Velvetleaf plant response rating,velvetleaf; [4],4
same,Velvetleaf plant response rating,velvetleaf; [5],6
same,Velvetleaf plant response rating,velvetleaf; [6],0
same,"Plant response rating, Velvetleaf",velvetleaf; [7],0
same,Velvetleaf plant response rating,velvetleaf; [8],0
same,Wheat plant response rating,wheat; [1],0
same,Wheat plant response rating,wheat; [2],0
same,Wheat plant response rating (0 to 10 scale),wheat; [3],0
same,Wheat plant response rating,wheat; [4],3
same,Wheat plant response rating,wheat; [5],3
same,Wheat plant response rating,wheat; [6],0
same,"Plant response rating, Wheat",wheat; [7],2
same,Wheat plant response rating,wheat; [8],2
same,Wild oats plant response rating,wild oat; [1],0
same,Wild oats plant response rating,wild oat; [2],3
same,Wild oats plant response rating (0 to 10 scale),wild oat; [3],5
same,Wild oats plant response rating,wild oat; [4],6
same,Wild oats plant response rating,wild oat; [5],6
same,Wild oats plant response rating,wild oat; [6],0
same,"Plant response rating, Wild oats",wild oat; [7],2
same,Wild oats plant response rating,wild oat; [8],2
same,Nutsedge plant response rating,purple nutsedge; [1],0
same,Nutsedge plant response rating,purple nutsedge; [2],0
same,Nutsedge plant response rating (0 to 10 scale),purple nutsedge; [3],0
same,Nutsedge plant response rating,purple nutsedge; [4],0
same,Nutsedge plant response rating,purple nutsedge; [5],0
same,Nutsedge plant response rating,purple nutsedge; [6],0
same,"Plant response rating, Nutsedge",purple nutsedge; [7],0
same,Nutsedge plant response rating,purple nutsedge; [8],0
same,S. Flatsedge plant response rating,smallflower flatsedge; [9],3
same,S. Flatsedge plant response rating,smallflower flatsedge; [10],5
same,S. Flatsedge plant response rating,smallflower flatsedge; [11],9
same,"Plant response rating, S. Flatsedge",smallflower flatsedge; [12],9
same,Ducksalad plant response rating,duck salad; [9],5
same,Ducksalad plant response rating,duck salad; [10],5
same,Ducksalad plant response rating,duck salad; [11],5
same,"Plant response rating, Ducksalad",duck salad; [12],5
